Laboratory results taken from ChEMBL document CHEMBL5154933, “Development of Lipo-γ-AA Peptides as Potent Antifungal Agents” (J Med Chem, 2022).
Converted amounts (≈) assume the structure as drawn. The source made the active and inactive calls. No cut-off for these calls is given here.

Assays:
Candida albicans [1] = test: Antifungal activity against Candida albicans CA17 assessed as fungal growth inhibition by broth microdilution assay; format: functional
[2] = test system: Cryptococcus deuterogattii; test: Antifungal activity against Cryptococcus gattii VGII R265 assessed as fungal growth inhibition by broth microdilution assay; format: functional, Cryptococcus gattii species complex
Candida parapsilosis = test: Antifungal activity against Candida parapsilosis ATCC 22019 assessed as fungal growth inhibition by broth microdilution assay; format: functional; conditions: Lodderomyces parapsilosis
Mucor racemosus [3] = test: Antifungal activity against Mucor racemosus R715 assessed as fungal growth inhibition by broth microdilution assay; format: functional
Cryptococcus neoformans [4] = test: Antifungal activity against Cryptococcus neoformans 5-FC assessed as fungal growth inhibition by broth microdilution assay; format: functional
Candida albicans [5] = test: Antifungal activity against Candida albicans 28A assessed as fungal growth inhibition by broth microdilution assay; format: functional
Mucor racemosus [6] = test: Antifungal activity against Mucor racemosus MZ140 assessed as fungal growth inhibition by broth microdilution assay; format: functional
[7] = Toxicity against Galleria mellonella larva infected with Candida albicans SC5314 assessed as increase in survival rate at 8 mg/kg measured for 14 days; format: organism-based; conditions: in vivo, 336 h, time 14 day
Cryptococcus neoformans [8] = test: Antifungal activity against Cryptococcus neoformans H99 assessed as fungal growth inhibition by broth microdilution assay; format: functional
Candida albicans [9] = test: Antifungal activity against Candida albicans CARG5 assessed as fungal growth inhibition by broth microdilution assay; format: functional
Candida albicans [10] = test: Antifungal activity against Candida albicans SC5314 assessed as fungal growth inhibition by broth microdilution assay; format: functional
Aspergillus fumigatus [11] = test: Antifungal activity against Aspergillus fumigatus AF293 assessed as fungal growth inhibition by broth microdilution assay; format: functional
Aspergillus fumigatus [12] = test: Antifungal activity against Aspergillus fumigatus shjt40 assessed as fungal growth inhibition by broth microdilution assay; format: functional
Pichia kudriavzevii = test: Antifungal activity against Candida krusei ATCC6258 assessed as fungal growth inhibition by broth microdilution assay; format: functional
Candida albicans [13] = test: Fungicidal activity against Candida albicans SC5314 assessed as fungal growth inhibition incubated for 24 hrs by resazurin dye based assay; format: functional
[14] = Hemolytic activity in human RBC incubated for 1 hr by microplate reader method; format: toxicity, cell-based, Erythrocyte; conditions: red blood cells (erythrocytes)
[15] = Selectivity ratio of HC50 for hemolytic activity in human RBC to MIC for antifungal activity against Candida parapsilosis ATCC 22019; format: toxicity; conditions: red blood cells (erythrocytes)
[16] = Selectivity ratio of HC50 for hemolytic activity in human RBC to MIC for antifungal activity against Mucor racemosus MZ140; format: toxicity; conditions: red blood cells (erythrocytes)
[17] = Selectivity ratio of HC50 for hemolytic activity in human RBC to MIC for antifungal activity against Cryptococcus gattii R265; format: toxicity; conditions: red blood cells (erythrocytes)
[18] = Selectivity ratio of HC50 for hemolytic activity in human RBC to MIC for antifungal activity against Cryptococcus neoformans 5-FC; format: toxicity; conditions: red blood cells (erythrocytes)
[19] = Selectivity ratio of HC50 for hemolytic activity in human RBC to MIC for antifungal activity against Candida albicans SC5314; format: toxicity; conditions: red blood cells (erythrocytes)
[20] = Selectivity ratio of HC50 for hemolytic activity in human RBC to MIC for antifungal activity against Aspergillus fumigatus shjt40; format: toxicity; conditions: red blood cells (erythrocytes)
[21] = Selectivity ratio of HC50 for hemolytic activity in human RBC to MIC for antifungal activity against Candida krusei ATCC6258; format: toxicity; conditions: red blood cells (erythrocytes)
[22] = Selectivity ratio of HC50 for hemolytic activity in human RBC to MIC for antifungal activity against Cryptococcus neoformans H99; format: toxicity; conditions: red blood cells (erythrocytes)
[23] = Selectivity ratio of HC50 for hemolytic activity in human RBC to MIC for antifungal activity against Aspergillus fumigatus AF293; format: toxicity; conditions: red blood cells (erythrocytes)
[24] = Selectivity ratio of HC50 for hemolytic activity in human RBC to MIC for antifungal activity against Mucor racemosus R715; format: toxicity; conditions: red blood cells (erythrocytes)
[25] = Selectivity ratio of HC50 for hemolytic activity in human RBC to MIC for antifungal activity against Candida albicans 28A; format: toxicity; conditions: red blood cells (erythrocytes)
[26] = Selectivity ratio of HC50 for hemolytic activity in human RBC to MIC for antifungal activity against Candida albicans CARG5; format: toxicity; conditions: red blood cells (erythrocytes)
[27] = Selectivity ratio of HC50 for hemolytic activity in human RBC to MIC for antifungal activity against Candida albicans CA17; format: toxicity; conditions: red blood cells (erythrocytes)
Candida albicans [28] = test: Increase in intracellular fluconazole accumulation in fluconazole-resistant Candida albicans CARG5 at 1 ug/ml incubated for 1 hr by fluorescence based analysis; format: functional, cell-based; conditions: dose 1.0 µg/ml
Candida albicans [29] = test: Potentiation of antifungal activity against fluconazole-sensitive Candida albicans YEM13 overexpressing efflux pump MDR1 gene assessed as fold reduction in fluconazole MIC at 1 ug/ml incubated for 24 hrs by checkerboard broth microdilution assay; format: functional; conditions: dose 1 µg/ml
[30] = Cytotoxicity against HEK293T cells measured after 48 hrs by CCK8 assay; format: toxicity, cell-based, HEK-293T; conditions: human
Cryptococcus neoformans [31] = test: Fungicidal activity against Cryptococcus neoformans H99 at 8 times of MIC measured after 10 to 25 mins by time-kill assay; format: functional, organism-based; conditions: time 10-25 min
Candida albicans [32] = test: Synergistic antifungal activity against fluconazole-resistant Candida albicans CARG5 assessed as fractional inhibitory concentration index incubated for 24 hrs by checkerboard broth microdilution assay; format: functional
Candida albicans [33] = test: Synergistic antifungal activity against fluconazole-resistant Candida albicans CARG5 assessed as reduction in fluconazole MIC at 1 microg/ml incubated for 24 hrs by checkerboard broth microdilution assay ( Rvb = > 128 microg/ml); format: functional; conditions: dose 1 µg/ml
Cell membrane [34] = test: Induction of membrane permeabilization in Candida albicans SC5314 assessed as damage and rupture of fungal cell membrane at 8 times MIC incubated for 4 hrs by scanning electron microscopic analysis; format: subcellular
Candida albicans [35] = test: Induction of reactive oxygen species generation in Candida albicans SC5314 assessed as increase in fluorescence intensity incubated for 1 hr by DCF-DA staining based method; format: functional, organism-based; conditions: DDE = dose-dependent effect
Cell membrane [36] = test: Induction of membrane permeabilization in Candida albicans SC5314 assessed as distruption of fungal cell membrane by measuring PI positive cells at 8 times MIC measured after 1 hrs by propidium iodide and DAPI staining based fluorescence microscopic analysis; format: subcellular
Candida albicans [37] = test: Fungicidal activity against Candida albicans SC5314 at 8 times MIC50 measured after 10 mins by time-kill assay; format: functional, organism-based
Cryptococcus neoformans [38] = test: Fungicidal activity against Cryptococcus neoformans H99 at 4 times MIC50 measured after 10 to 25 mins by time-kill assay; format: functional, organism-based; conditions: time 10-25 min
Candida albicans [39] = test: Effect on efflux pump function in Candida albicans CARG5 assessed as increase in Nile red fluorescence at 1 ug/ml incubated for 1 hr by FACScan flow cytometer analysis; format: functional; conditions: dose 1.0 µg/ml
Candida albicans [40] = test: Antifungal activity against Candida albicans CARG5 infected in BALB/c mouse surgical wound model assessed as reduction in fungal burden smeared on wound at 8 mg/kg administered every 12 hrs for 48 hrs in presence of fluconazole; format: functional, organism-based
Candida albicans [41] = test: Potentiation of antifungal activity against fluconazole-sensitive Candida albicans YEM12 overexpressing efflux pump MDR1 gene assessed as fold reduction in fluconazole MIC at 1 ug/ml incubated for 24 hrs by checkerboard broth microdilution assay; format: functional; conditions: dose 1 µg/ml

## OC(Cn1cncn1)(Cn1cncn1)c1ccc(F)cc1F [FLUCONAZOLE]
Candida albicans [1]
  MIC50: > 128 µg/mL
[2]
  MIC50: 4 µg/mL (≈ 13.1 µM)
Candida parapsilosis
  MIC50: 2 µg/mL (≈ 6.53 µM)
Mucor racemosus [3]
  MIC50: > 32 µg/mL
Cryptococcus neoformans [4]
  MIC50: 2 µg/mL (≈ 6.53 µM)
Candida albicans [5]
  MIC50: > 128 µg/mL
Mucor racemosus [6]
  MIC50: > 32 µg/mL
[7]
  Activity: Non-Toxic
Cryptococcus neoformans [8]
  MIC50: 4 µg/mL (≈ 13.1 µM)
Candida albicans [9]
  MIC50: > 128 µg/mL
Candida albicans [10]
  MIC50: 1 µg/mL (≈ 3.27 µM)
Aspergillus fumigatus [11]
  MIC50: > 32 µg/mL
Aspergillus fumigatus [12]
  MIC50: > 32 µg/mL
Pichia kudriavzevii
  MIC50: 32 µg/mL (≈ 104 µM)
Candida albicans [13]
  MFC: > 16 µg/mL

## CCCCCCCCCCCCCCCCCC(=O)N[C@@H](CCCCN)C(=O)N[C@@H](Cc1ccccc1)CN(CC(N)=O)C(=O)CCN
[14]
  HC50 at 1 h: > 250 µg/mL
Candida albicans [1]
  MIC50: 4 µg/mL (≈ 5.94 µM)
[2]
  MIC50: 2 µg/mL (≈ 2.97 µM)
[15]
  selectivity ratio: ≤ 125
[16]
  selectivity ratio: ≤ 125
[17]
  selectivity ratio: ≤ 125
[18]
  selectivity ratio: ≤ 125
Candida parapsilosis
  MIC50: 2 µg/mL (≈ 2.97 µM)
[19]
  selectivity ratio: ≤ 125
[20]
  selectivity ratio: ≤ 125
Mucor racemosus [3]
  MIC50: 16 µg/mL (≈ 23.8 µM)
Cryptococcus neoformans [4]
  MIC50: 2 µg/mL (≈ 2.97 µM)
Candida albicans [5]
  MIC50: 2 µg/mL (≈ 2.97 µM)
[21]
  selectivity ratio: ≤ 125
Mucor racemosus [6]
  MIC50: 16 µg/mL (≈ 23.8 µM)
[22]
  selectivity ratio: ≤ 125
Cryptococcus neoformans [8]
  MIC50: 2 µg/mL (≈ 2.97 µM)
[23]
  selectivity ratio: ≤ 125
Candida albicans [9]
  MIC50: 2 µg/mL (≈ 2.97 µM)
Candida albicans [10]
  MIC50: 2 µg/mL (≈ 2.97 µM)
[24]
  selectivity ratio: ≤ 125
Aspergillus fumigatus [11]
  MIC50: 8 µg/mL (≈ 11.9 µM)
[25]
  selectivity ratio: ≤ 125
[26]
  selectivity ratio: ≤ 125
Aspergillus fumigatus [12]
  MIC50: 8 µg/mL (≈ 11.9 µM)
Pichia kudriavzevii
  MIC50: 4 µg/mL (≈ 5.94 µM)
[27]
  selectivity ratio: ≤ 125

## CCCCCCCCCCCCCCCC(=O)N[C@@H](CCCN)C(=O)N[C@@H](Cc1ccccc1)CN(CC(N)=O)C(=O)CCN
[14]
  HC50 at 1 h: > 250 µg/mL
Candida albicans [1]
  MIC50: 2 µg/mL (≈ 3.17 µM)
Candida albicans [28]
  Activity: Active
[2]
  MIC50: 2 µg/mL (≈ 3.17 µM)
Candida albicans [29]
  fold change (FC): 8
[30]
  IC50 at 48 h: 32.2 µg/mL (≈ 51 µM)
[15]
  selectivity ratio: ≤ 125
[16]
  selectivity ratio: ≤ 125
Cryptococcus neoformans [31]
  Activity: Active
Candida albicans [32]
  fractional inhibitory concentration index (FICI): <=0.5
[17]
  selectivity ratio: ≤ 125
[18]
  selectivity ratio: ≤ 125
Candida albicans [33]
  MIC50: 1 µg/mL
Cell membrane [34]
  Activity: Active
Candida albicans [35]
  Activity: Dde
Candida parapsilosis
  MIC50: 2 µg/mL (≈ 3.17 µM)
Cell membrane [36]
  Activity: Active
Candida albicans [37]
  Activity: Active
[19]
  selectivity ratio: ≤ 125
[20]
  selectivity ratio: ≤ 125
Mucor racemosus [3]
  MIC50: 4 µg/mL (≈ 6.34 µM)
Cryptococcus neoformans [4]
  MIC50: 2 µg/mL (≈ 3.17 µM)
Candida albicans [5]
  MIC50: 2 µg/mL (≈ 3.17 µM)
[21]
  selectivity ratio: ≤ 125
Mucor racemosus [6]
  MIC50: 8 µg/mL (≈ 12.7 µM)
[7]
  Activity: Non-Toxic
[22]
  selectivity ratio: ≤ 125
Cryptococcus neoformans [8]
  MIC50: 2 µg/mL (≈ 3.17 µM)
[23]
  selectivity ratio: ≤ 125
Candida albicans [9]
  MIC50: 2 µg/mL (≈ 3.17 µM)
Candida albicans [10]
  MIC50: 2 µg/mL (≈ 3.17 µM)
Cryptococcus neoformans [38]
  Activity: Active
[24]
  selectivity ratio: ≤ 125
Aspergillus fumigatus [11]
  MIC50: 4 µg/mL (≈ 6.34 µM)
[25]
  selectivity ratio: ≤ 125
[26]
  selectivity ratio: ≤ 125
Candida albicans [39]
  Activity: Active
Aspergillus fumigatus [12]
  MIC50: 4 µg/mL (≈ 6.34 µM)
Candida albicans [40]
  Activity: Active
Pichia kudriavzevii
  MIC50: 2 µg/mL (≈ 3.17 µM)
Candida albicans [13]
  MFC: 4 µg/mL (≈ 6.34 µM)
Candida albicans [41]
  fold change (FC): 2
[27]
  selectivity ratio: ≤ 125

## CCCCCCCC/C=C\CCCCCCCC(=O)N[C@@H](CCCCN)C(=O)N[C@@H](Cc1ccccc1)CN(CC(N)=O)C(=O)CCN
[14]
  HC50 at 1 h: > 250 µg/mL
Candida albicans [1]
  MIC50: 4 µg/mL (≈ 5.96 µM)
[2]
  MIC50: 4 µg/mL (≈ 5.96 µM)
[15]
  selectivity ratio: ≤ 125
[17]
  selectivity ratio: ≤ 125
[18]
  selectivity ratio: ≤ 125
Candida parapsilosis
  MIC50: 4 µg/mL (≈ 5.96 µM)
[19]
  selectivity ratio: ≤ 125
Cryptococcus neoformans [4]
  MIC50: 4 µg/mL (≈ 5.96 µM)
Candida albicans [5]
  MIC50: 4 µg/mL (≈ 5.96 µM)
[21]
  selectivity ratio: ≤ 125
[22]
  selectivity ratio: ≤ 125
Cryptococcus neoformans [8]
  MIC50: 4 µg/mL (≈ 5.96 µM)
Candida albicans [9]
  MIC50: 4 µg/mL (≈ 5.96 µM)
Candida albicans [10]
  MIC50: 4 µg/mL (≈ 5.96 µM)
[25]
  selectivity ratio: ≤ 125
[26]
  selectivity ratio: ≤ 125
Pichia kudriavzevii
  MIC50: 4 µg/mL (≈ 5.96 µM)
[27]
  selectivity ratio: ≤ 125
